Experimental data published in patent publication US4914201A, “Indolo[1,2-d][1,4]benzodiazepin-6(7H)-thiones” (Hoechst-Roussel Pharmaceuticals Inc., priority 1989, dated 1990).

System: 2-phenyl-1,4-benzoquinone-induced writhing in mice
Experiment: 2-phenyl-1,4-benzoquinone-induced writhing test in mice (analgesia, phenylquinone writhing, PQW)
Format: in vivo
Text: The compounds of Formula I of the present invention are useful as analgesic agents due to their ability to alleviate pain in mammals. […] Exptl. Biol. Med., 95, 729 (1957)].

Row | SMILES | Analgesic PQW, % Inhibition of Writhing at 20 mg/kg., s.c.
1 | Cc1nnc2n1-c1ccccc1-c1cc3ccccc3n1C2 [Example 7, 1-Methyl-4H-indolo[1,2-d][1,2,4]triazolo[4,3-a][1,4]benzodiazepine] | 37%
2 | Cc1nnc2n1-c1ccccc1-c1c(Cl)c3ccccc3n1C2 [Example 8, 10-chloro-1-methyl-4H-indolo-[1,2-d][1,2,4]triazolo[4,3-a]-[1,4]benzodiazepine] | 51%
3 | Cc1nnc2n1-c1ccc(Cl)cc1-c1cc3ccccc3n1C2 [Example 9, 12-Chloro-1-methyl-4H-indolo[1,2-d][1,2,4]triazolo[4,3-a][1,4]benzodiazepine] | 46%
4 | Cc1nnc2n1-c1ccc(Cl)cc1-c1c(Cl)c3ccccc3n1C2 [Example 11, 10,12-Dichloro-1-methyl-4H-indolo[1,2-d][1,2,4]triazolo[4,3-a][1,4]benzodiazepine] | 32%
